Laboratory results reported in patent US20090220996A1, “In vitro Assay Methods for Classifying Embryotoxicity of Compounds” (RELIANCE LIFE SCIENCES PVT LTD., priority 2007, published 2009).
In brackets after ≈: the same amount, converted by molar mass. Like-named read-outs stand apart in the source and are kept apart here.

What was measured:
[1] = system: human embryoid bodies (hEBs); experiment: Morphological evaluation of embryoid bodies (photomicrographs); assay type: cell-based; conditions: day 7 hEBs; FIG. 4A-4D
Method: Hanging drops were made in hES media with LIF and bFGF for calculating IC50-hES cells, and in hES media without LIF and bFGF (hEB media) for the formation of EBs. On day 3 the hES colonies were collected along with the respective test compound concentration, whereas the hEBs were collected and transferred to 60 mm bacteriological petri plates for another 2 days. Morphology of the EBs was monitored under the microscope for the formation of EBs. On day 5 the hEBs were plated in a 96 well plate for MTT, as well as on a 6 well plate for RNA extraction. The media along with the appropriate test compound concentration was replaced in the 96 well and 6 well plates on days 7, 9, 11, and 13. On day 15, MTT was performed on the hES plate and the differentiated EBs. RNA was extracted from all the concentrations of 5-fluorouracil, and 1 μg of RNA was converted to cDNA to perform RT-PCR, real time PCR, or TLDA.

[2] = system: human embryoid bodies (hEB); experiment: Cytotoxicity in human embryoid bodies, day 15 (MTT / CyQUANT); conditions: for IC50: Homo sapiens
Method: In general, the presently disclosed embryotoxicity testing protocols comprise the following sequence of steps. Studies using embryoid bodies generally comprise: a) preparation of various concentrations of test solutions in culture medium or a desired solvent; b) preparation of a cell suspension by enzymatic digestion of human embryonic stem cell colonies; c) culturing the cell suspension for formation of embryoid bodies in the presence and absence of one or more test solutions, and incubation for several days (e.g., three days) in hanging drops; d) cultivation of the embryoid bodies in bacteriological petri dishes for several days (e.g., two days) under controlled conditions; e) transfer of the embryoid bodies into 96 well plates and incubation for several days (e.g., 10 days) in the presence of one or more test solutions; and f) detection of the viability of the embryoid bodies after 15 days by MTT assay, or fluorescent or luminescent method, and isolation of RNA for studying gene expression. Studies using human foreskin fibroblasts (HFF) generally comprise: a) preparation of various concentrations of test solutions in culture medium or a desired solvent; b) plating of HFF cells in 96 well plates in the presence or absence of one or more test solutions for 15 days, changing the media and test solutions every 2 days; and c) detection of the viability of HFF after 15 days by MTT assay, or fluorescent or luminescent method. Studies using human embryonic stem cells generally comprise: a) preparation of various concentrations of test solutions in culture medium or a desired solvent; b) preparation of hES colonies by manual passage in the presence and absence of one or more test solutions, and incubation for 15 days on matrigel coated plates changing the media and test solutions every 2 days; c) disruption of the colonies after 15 days with enzymes to form single cells; d) labeling of single cells with a fluorescently-labeled dye, such as propidium iodide (“PI”); and e) detection of the percentage viability with FACS as a measure of cytotoxicity.
The culturing of the cell suspension is done by dispensing about ¼ of the cell suspension along with test chemicals on the inner side of a 100 mm bacteriological petri dish. Around 50-80 drops are dispensed for each concentration, the untreated control, and the solvent control. The lid is turned carefully into its regular position and is put on top of a petri dish containing 5 ml of phosphate buffered saline (“PBS”). The “hanging drops” are incubated for three days in a humidified atmosphere with 5% CO2 at 37° C.
On day 3, 5 ml of freshly prepared test solution is added to the lid of the “hanging drops” petri dish. The embryoid bodies are carefully transferred from the lid of the “hanging drops” petri dish to a 60 mm bacteriological petri dish. The suspension is cultivated for two days in a humidified atmosphere with 5% CO2 at 37° C.
On the 5th day, the EBs are transferred into 96 well plates by placing 10 EBs in each well. About 150 μl of freshly prepared test solution is added to each well, and three wells are used for each concentration. The 96 well plates are incubated for […] in a humidified atmosphere with 5% CO2 at 37° C. The remaining EBs are plated on a 24 well plate coated with 0.2% gelatin and allowed to differentiate. Media was replaced every second day until day 15.
On the 15th day, an MTT assay is performed. MTT solution (5 mg/ml) is prepared in culture medium containing test chemical. The MTT solution is added to all wells and incubated at 37° C. in a humidified atmosphere of 5% CO2 for 4 hours, after which the MTT desorb solution (acidified isopropanol) is added to each well. The plate is shaken on a micrometer plate for 15 minutes to dissolve the formazan. The absorbance is measured at 550-570 nm in a microtiter plate reader using 630 nm as a reference wavelength.

[3] = system: 3T3 (mouse fibroblast cell line); conditions: Table 4; from the EST (Genschow, et al., 2000); cited from earlier work
mouse ES cells = conditions: Table 4; from the EST (Genschow, et al., 2000); cited from earlier work
[4] = system: human embryonic stem cells (hES); experiment: Cytotoxicity in undifferentiated human embryonic stem cells, day 15 (FACS with PI / CyQUANT); assay type: cell-based; conditions: Homo sapiens, Embryonic stem cell
Method: In general, the presently disclosed embryotoxicity testing protocols comprise the following sequence of steps. Studies using embryoid bodies generally comprise: a) preparation of various concentrations of test solutions in culture medium or a desired solvent; b) preparation of a cell suspension by enzymatic digestion of human embryonic stem cell colonies; c) culturing the cell suspension for formation of embryoid bodies in the presence and absence of one or more test solutions, and incubation for several days (e.g., three days) in hanging drops; d) cultivation of the embryoid bodies in bacteriological petri dishes for several days (e.g., two days) under controlled conditions; e) transfer of the embryoid bodies into 96 well plates and incubation for several days (e.g., 10 days) in the presence of one or more test solutions; and f) detection of the viability of the embryoid bodies after 15 days by MTT assay, or fluorescent or luminescent method, and isolation of RNA for studying gene expression. Studies using human foreskin fibroblasts (HFF) generally comprise: a) preparation of various concentrations of test solutions in culture medium or a desired solvent; b) plating of HFF cells in 96 well plates in the presence or absence of one or more test solutions for 15 days, changing the media and test solutions every 2 days; and c) detection of the viability of HFF after 15 days by MTT assay, or fluorescent or luminescent method. Studies using human embryonic stem cells generally comprise: a) preparation of various concentrations of test solutions in culture medium or a desired solvent; b) preparation of hES colonies by manual passage in the presence and absence of one or more test solutions, and incubation for 15 days on matrigel coated plates changing the media and test solutions every 2 days; c) disruption of the colonies after 15 days with enzymes to form single cells; d) labeling of single cells with a fluorescently-labeled dye, such as propidium iodide (“PI”); and e) detection of the percentage viability with FACS as a measure of cytotoxicity. […]
After 2 hours incubation, 150 μl of assay medium containing the appropriate concentration of test chemical (150 μl volume contains 1.333× the final chemical concentration) was added. Appropriate blanks without the chemicals were used along with the test samples The cell cultures were incubated at 5% CO2 and 37° C. for 3 days. On day 3, test solution was removed with the care, so that the cell layer on the bottom of the wells was not disturbed. Next, 200 μl of freshly prepared test solution (final concentration/well as on day 0) was added, and the cell cultures were incubated at 5% CO2 and 37° C. for 3 days. This process was repeated on days 6, 9, and 12. Determination of cell growth inhibition was performed at day 15 of the assay using MTT reagent. Cytotoxicity for hES cells was calculated using flow cytometry. Briefly, cells were placed on matrigel coated plates along with different test compound concentrations. Media was replaced every 3 days along with the different test compound concentrations. At day 15, hES cells were collected by trypsinization, and after washing with PBS, the cells were incubated with PI for 10 minutes in the dark. Percent viability for various test compound concentrations was calculated using flow cytometry.
Cytotoxicity analysis of three cell types (hES, hEBs and HFF) was evaluated using the CyQUANT assay following compound treatment. All data were the mean of three independent experiments for each cell type. Data is represented as the mean±SE.

[5] = Table 5; cited from earlier work

Q: Which “concentration required to elicit a similar morphological response (loss of compactness, decreased EB size)” value [1] does the source give for `O=C1NS(=O)(=O)c2ccccc21` [Saccharin, saccharin] here?
A: 5000 μg/ml

Q: And the IC50 ([2]; 360 h, read-out: IC50-hEB)?
A: 1550 ± 34.5 µg/mL (≈ 8.44 mM)

Q: What about the IC50 ([2]; read-out: IC50-hEBs) of the same compound?
A: 1550 µg/mL (≈ 8.44 mM)

Q: And the cell survival ([2]; hEBs, 1000 μg/ml, CyQUANT, FIG. 4A/4B)?
A: about 60%

Q: What about the “Mouse EST IC50 - 3T3” value [3] of the same compound?
A: 3000 µg/mL

Q: And the “Mouse EST IC50 - mES” value (mouse ES cells)?
A: 3498 µg/mL

Q: And the IC50 ([4]; 360 h, Table 3, mean of 3 experiments, day 15, read-out: IC50-hES)?
A: 1920 ± 22.5 µg/mL (≈ 10.5 mM)

Q: And the IC50 ([4]; Table 4, CyQuant cell viability assay, read-out: Human EST IC50 - hES)?
A: 1920 ± 22.5 µg/mL (≈ 10.5 mM)

Q: And the General toxicity [5]?
A: Obesity
